Test results from patent US20010048926A1, “SYNTHETIC PEPTIDE VACCINES FOR DENTAL CARIES” (priority 1992, published 2001).

How the values were obtained:
[1] = tested on: inducing peptide construct; experiment: ELISA of serum IgG antibody to the inducing (homologous) peptide construct in immunized rats; assay type: in vivo, Sprague Dawley rats; conditions: for IgG antibody levels to GGY: pre-infection sera
Procedure: (§1) Immunogenicity of Peptides: Sprague Dawley CD strain 43 day-old male rats (Charles River Laboratories) were used for injection. Six groups of 4-5 rats were injected subcutaneously in the vicinity of the salivary glands with 50 μg each of GGY, AND, SAND or CAT peptide constructs, 10 μg of GTF, or sham-immunized with buffer alone. The initial injection included complete Freund adjuvant (CFA; Difco); two subsequent injections at 21-day intervals included incomplete Freund adjuvant. Animals were bled prior to injection and 14-21 days after each injection. Serum from coagulated and centrifuged blood was stored frozen at −20° C. until use.
(§2) ELISA: Serum IgG and salivary IgA antibodies were tested by enzyme-linked immunosorbent assay (ELISA). Polystyrene microtiter plates (Flow Laboratories) were coated with […] of each peptide construct or 0.5 μg of S. sobrinus GTF. Antibody activity was then measured by incubation with 1:100 to 1:10^6 dilutions of sera, or 1:4 to 1:32 dilutions of saliva. Plates were then developed for IgG antibody rabbit anti-rat IgG followed in sequence by alkaline phosphatase goat anti-rabbit IgG (Biosource Inc.) and p-nitrophenylphosphate (Sigma). A mouse monoclonal reagent to rat α chain (Zymed, South San Francisco, Calif.) was used with biotinylated goat anti-mouse IgG (TAGO, Inc., Burlingame, Calif.) and avidin-alkaline phosphatase (Cappel) to reveal levels of salivary IgA antibody to peptides. Reactivity was recorded as absorbance (A405 nm) in a micro plate reader (Biotek Instruments). Data are reported as absorbance (A405 nm), reciprocal titer, or as ELISA units (EU) which were calculated relative to the levels of appropriate reference sera or salivas from Sprague Dawley rats thrice immunized with the respective peptide construct. Dilutions of 1:12,800 and 1:6,400 (A405 nm approximately 1.0) were considered 100 EU for serum IgG to the GGY and AND constructs, respectively. Dilutions of 1:32 were considered 100 EU for salivary IgA to both GGY and AND constructs.
Two experiments were performed. Groups (n=11-12) of 23-26 day-old rats were subcutaneously (sc) injected in the salivary gland vicinity with (experiment 1) GGY (50 μg), AND (50 μg) or GTF(10 μg), or phosphate buffered saline (control animals), or (experiment 2) GGY (50 ;μg) or PBS. Each antigen was incorporated with complete Freund adjuvant in both experiments. Eight (experiment 1) or 14 (experiment 2) days later, rats were reinjected with PBS or with the same antigen and dose in incomplete Freund adjuvant. Six (experiment 1) or 12 (experiment 2) days after the second injection, animals were bled from the tail vein, and saliva was collected after injection of pilocarpine (1.0 mg/100 g body weight). Fourteen (experiment 1) or 11 (experiment 2) days after the second injection, all rats were orally infected with approximately 10^8 S. mutans for 3 consecutive days. Both experiments were terminated 63 days after initial infection.
Two experiments were performed to measure the effect of immunization with the eight-branched GGY and AND peptide constructs on experimental dental caries in the Sprague-Dawley rat. In the first experiment, groups of rats were immunized with GGY or AND peptide constructs. In the second experiment groups of rats were immunized only with the GGY peptide construct. Pre-infection sera and salivas were collected for antibody measurement in 39 day old rats in experiment 1 (6 days after the second injection) and 51 day old rats in experiment 2 (12 days after the second injection). In the GGY-immunized rat groups, IgG antibody levels to GGY (experiment 1=21.9+17.8 EU; experiment 2=108.0±4.0 EU) were elevated above those of the sham-immunized groups (experiment 1=1.7±0.2 EU; experiment 2=4.0±3.0 EU) in both experiments and reached statistical significance (p<0.002) in experiment 2.

AND peptide construct = target: T1, AND peptide construct (Streptococcus mutans serotype c, UniProt P08987); experiment: Cross-reactivity ELISA, plates coated with AND peptide construct; assay type: binding; conditions: day 63 sera; FIG. 4
T1 construct: GGY and AND were 19-mer peptides; purchased Applied Diagnostics, Foster City, Calif; host or cells: chemical solid phase synthesis
Procedure: as §1
(§3) ELISA: Serum IgG and salivary IgA antibodies were tested by enzyme-linked immunosorbent assay (ELISA). Polystyrene microtiter plates (Flow Laboratories) were coated with […] of each peptide construct or 0.5 μg of S. sobrinus GTF. Antibody activity was then measured by incubation with 1:100 to 1:10^6 dilutions of sera, or 1:4 to 1:32 dilutions of saliva. […] Reactivity was recorded as absorbance (A405 nm) in a micro plate reader (Biotek Instruments). Data are reported as absorbance (A405 nm), reciprocal titer, or as ELISA units (EU) which were calculated relative to the levels of appropriate reference sera or salivas from Sprague Dawley rats thrice immunized with the respective peptide construct. […]

CAT peptide construct = target: T2, CAT peptide construct (Streptococcus mutans serotype c, UniProt P08987); experiment: Cross-reactivity ELISA, plates coated with CAT peptide construct; assay type: binding; conditions: day 63 sera; FIG. 4
T2 construct: residues 442-462 of S. mutans GTF-B; purchased Applied Diagnostics, Foster City, Calif; host or cells: chemical solid phase synthesis
T2 sequence (P08987 442-462 limits assumed): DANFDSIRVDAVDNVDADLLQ
Procedure: as §1, §3

anti-GGY serum = experiment: Epitope mapping by ELISA inhibition, anti-GGY serum on GGY-coated plates; assay type: binding, rat; conditions: anti-GGY serum preincubated with heptamer or intact peptide; FIG. 8
Procedure: Epitope Mapping: B cell epitopes were mapped on the GGY and AND peptides by an ELISA inhibition technique. Anti-GGY or anti-AND sera were preincubated with 13 separate heptamers representing the incremental peptide sequence of the respective peptide, or with intact peptide, followed by the conventional ELISA with intact peptide-coated plates. B cell epitopes were indicated by a significant reduction in absorbance.

S. sobrinus GTF = experiment: ELISA of serum IgG antibody reacting with intact S. sobrinus GTF; assay type: in vivo; conditions: 63 day sera, n=4-5 per group; FIG. 3
From the text: Glucosyltransferases: Glucosyltransferases (GTF) from S. sobrinus strain 6715 were purified from culture supernatants after bacterial growth in glucose-containing defined media, as described in Taubman et al. (J. Oral Pathol. 17:466-470 (1988)). Enzymes were separated from other culture supernatant proteins by affinity chromatography on Sephadex G-100 (Pharmacia Fine Chemicals), using 6M guanidine HCl as the eluting solvent. GTFs were then obtained from the guanidine HCl eluate by FPLC chromatography on Superose 6 (Pharmacia) using 6M guanidine for elution. GTF preparations contained a mixture of GTF-I, GTF-Sd, and GTF-Si.
as §1, §2

GGYEFLLANDVDNSNPVVQ
responding rats (serum IgG) ([1]; immunization began on day 43 of life, bled 21 days later (day 64 of life), immunogenicity experiment): 4/4
immunogenicity (percentage of animals responding and titer of responding sera) ([1]; immunogenicity experiment, FIG. 1): at least as high as observed for the positive control CAT peptide
effect of subsequent immunization on serum IgG titers ([1]; immunogenicity experiment, day 21 (one injection) vs day 63 (three injections)): sufficient to induce maximal serum IgG antibody to GGY
serum IgG antibody to the inciting antigen after the first injection ([1]; immunogenicity experiment, rats 43 days old at start, 50 μg sc in CFA, day 21): induced serum IgG antibody to the inciting antigen after the first injection in all rats
IgG antibody levels to GGY ([1]; protection experiment 1, 39 day old rats, 6 days after the second injection): 21.9 ± 17.8 EU
levels of serum IgG antibody (in words) ([1]; protection experiment 1, weanling rats, two injections eight days apart, bled 14 days after onset (day 39 of life)): modest levels
IgG antibody levels to GGY ([1]; protection experiment 2, 51 day old rats, 12 days after the second injection, p<0.002 vs sham): 108.0±4.0 EU
positively responding rats (serum IgG) ([1]; protection experiment 2, weanling rats, two injections 14 days apart, bled 26 days after onset (day 51 of life)): 8/11
levels of serum IgG antibody (in words) ([1]; protection experiment 2, weanling rats, two injections 14 days apart, bled day 51 of life): significantly elevated levels of serum IgG antibody
reaction of serum IgG antibody with the AND peptide construct (AND peptide construct): significant reaction
reaction of serum IgG antibody with the CAT peptide (CAT peptide construct): low but significant reaction
inhibition of GGY antibody binding to intact peptide-coated plates (anti-GGY serum): completely inhibited
IgG antibody reactivity with intact S. sobrinus GTF (S. sobrinus GTF): significant reactivity with GTF
